Laboratory results reported in patent US20150024001A1, “MOLECULAR MIMIC MUCOSAL AIDS VACCINE” (priority 2011, published 2015).

Key:
UAE-1 = settings: cited from earlier work
gp140 = settings: subcutaneous booster in monkeys first immunized with Hub-TGDK-UPA-CpGODN-gp140-Fetuin, after anti-gp140 titer had decreased (about one year and a half)
Text: The resulting modified gene of SIVmac239 Env was transferred into simian Vero cells and a monomer and a trimer of SIVmac239 Env gp140 were constructed.

Compound | mode of inhibition of UAE-1 (UAE-1) | production of anti-gp140 antibodies after booster (gp140)
NCCNC(=O)[C@H](CCCCNC(=O)[C@H](CCCCNC(=O)c1cc(O)c(O)c(O)c1)NC(=O)c1cc(O)c(O)c(O)c1)NC(=O)[C@H](CCCCNC(=O)c1cc(O)c(O)c(O)c1)NC(=O)c1cc(O)c(O)c(O)c1 [TGDK, N^2,N^6-bis[N^2,N^6-bis(3,4,5-trihydroxybenzoyl)-L-lysyl]-N-(2-aminoethyl)-L-lysine amide] | competitive inhibitor | 
Fetuin |  | production of anti-gp140 antibodies was confirmed
